Measured values from patent publication US20240391862A1, “(1,4,5-TRISUBSTITUTED-1H-PYRAZOL-3-YL)OXY-2-ALKOXY ALKYL ACIDS AND THEIR DERIVATIVES, THEIR SALTS AND THEIR USE AS HERBICIDAL AGENTS” (Bayer AKtiengesellschaft, priority 2021, published 2024).

What was measured:
[1] = test system: AVEFA; assay: Post-emergence herbicidal effect, greenhouse pot test; type: in vivo, Avena fatua; conditions: visual rating about 3 weeks after treatment
Outline: (§1)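 Greenhouse pot test: weeds and crops sown in sandy loam, sprayed post-emergence at one-leaf stage (2–3 weeks after sowing) with WP or EC formulations plus 0.5% additive at 600 l/ha water, rates 20–320 g/ha. Visual rating about 3 weeks later versus untreated controls (100% = dead, 0% = as control).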

[2] = test system: POLCO; assay: as above; type: in vivo, Fallopia convolvulus
Outline: as §1

[3] = test system: VERPE; assay: as above; type: in vivo, Veronica persica
Outline: as §1

[4] = test system: ECHCG; assay: as above; type: in vivo, Echinochloa crus-galli
Outline: as §1

[5] = test system: DIGSA; assay: as above; type: in vivo, Digitaria sanguinalis; conditions: visual rating about 3 weeks after treatment
Outline: as §1

[6] = test system: LOLRI; assay: as above; type: in vivo, Lolium rigidum; conditions: 320 g/ha
Outline: as §1

[7] = test system: ALOMY; assay: as above; type: in vivo, Alopecurus myosuroides; conditions: 320 g/ha, visual rating about 3 weeks after treatment
Outline: as §1

[8] = test system: PHBPU; assay: as above; type: in vivo, Ipomoea purpurea
Outline: as §1

[9] = test system: KCHSC; assay: as above; type: in vivo
Outline: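 Visual rating of activity against untreated plants (100% = plants died, 0% = no effect), done about 3 weeks after treatment. Compounds applied at 20–320 g/ha as aqueous spray (600 l/ha, 0.5% additive) from WP or EC formulations onto one-leaf-stage plants grown in sandy loam under greenhouse conditions.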

[10] = test system: ABUTH; assay: as above; type: in vivo, Abutilon theophrasti; conditions: visual rating about 3 weeks after treatment
Outline: as §1

[11] = test system: AMARE; assay: as above; type: in vivo, Amaranthus retroflexus; conditions: visual rating about 3 weeks after treatment
Outline: as §1

[12] = test system: VIOTR; assay: as above; type: in vivo, Viola tricolor
Outline: as §1

[13] = test system: ZEAMX; assay: Post-emergence herbicidal effect and crop plant compatibility, greenhouse pot test; type: in vivo, Zea mays; conditions: one-leaf stage, rated visually after about 3 weeks vs untreated controls
Outline: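 Visual % activity scored roughly 3 weeks post-spray against untreated plants, where 100% means death and 0% equals control. Plants were treated at the one-leaf stage, 2 to 3 weeks after sowing in sandy loam, at 20 to 320 g/ha.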

[14] = test system: SETVI; assay: Post-emergence herbicidal effect, greenhouse pot test; type: in vivo, Setaria viridis
Outline: as §1

[15] = test system: MATIN; assay: as above; type: in vivo, Tripleurospermum inodorum
Outline: as §1

Row | SMILES | Post-emergence effect against AVEFA ([1]; 320 g/ha) [%] | Post-emergence effect against POLCO in % ([2]; 320 g/ha) [%] | Post-emergence effect against VERPE in % ([3]; 320 g/ha) [%] | Post-emergence effect against ECHCG in % ([4]; 80 g/ha) [%] | Post-emergence effect against ECHCG in % ([4]; 320 g/ha) [%] | Post-emergence effect against DIGSA ([5]; 320 g/ha) [%] | Post-emergence effect against LOLRI in % [6] [%] | Post-emergence effect against ALOMY [7] [%] | Post-emergence effect against PHBPU in % ([8]; 320 g/ha) [%] | Post-emergence effect against KCHSC in % ([9]; 320 g/ha) [%] | Post-emergence effect against ABUTH ([10]; 320 g/ha) [%] | Post-emergence effect against VIOTR in % ([12]; 320 g/ha) [%] | Post-emergence effect at 20 g/ha against ZEAMX in % [13] [%] | Post-emergence effect against SETVI in % ([14]; 320 g/ha) [%] | other results
1 | COC(Oc1nn(-c2ncccc2F)c(-c2ccc(F)nc2)c1C1CC1)C(=O)O (stereo not shown) [Example I-90] | 90 | 80 | 80 | 90 | 90 | 80 | 90 | 90 | 90 | 90 | 90 | 90 | 0 | 90 | pest or weed control at 20 g/ha ([9]; 504 h, 20 g/ha, read-out: Post-emergence effect against KCHSC in %): 80%; pest or weed control at 80 g/ha ([9]; 504 h, 80 g/ha, read-out: Post-emergence effect against KCHSC in %): 90%; pest or weed control at 320 g/ha ([11]; Amaranthus retroflexus, 504 h, 320 g/ha, read-out: Post-emergence effect against AMARE): 80%; Post-emergence effect at 80 g/ha against ZEAMX in % ([13]; 80 g/ha): 0%; Post-emergence effect at 320 g/ha against ZEAMX in % ([13]; 320 g/ha): 0%
2 | COC(=O)CCOC(=O)C(OC)Oc1nn(-c2ncccc2F)c(-c2cncc(F)c2)c1C1CC1 (stereo not shown) [Example I-82] | 90 | 90 | 90 | 90 | 90 | 90 | 90 | 90 | 90 | 90 | 90 | 90 | 20 | 90 | Post-emergence effect against AVEFA ([1]; 80 g/ha): 90%; Post-emergence effect against POLCO in % ([2]; 20 g/ha): 80%; Post-emergence effect against POLCO in % ([2]; 80 g/ha): 80%; Post-emergence effect against VERPE in % ([3]; 80 g/ha): 90%; Post-emergence effect against ECHCG ([4]; 20 g/ha, visual rating about 3 weeks after treatment): 80%; Post-emergence effect against DIGSA ([5]; 80 g/ha): 90%; Post-emergence effect against PHBPU in % ([8]; 80 g/ha): 80%; Post-emergence effect against KCHSC in % ([9]; 20 g/ha): 90%; Post-emergence effect against KCHSC in % ([9]; 80 g/ha): 90%; Post-emergence effect against ABUTH ([10]; 20 g/ha): 80%; Post-emergence effect against ABUTH ([10]; 80 g/ha): 90%; Post-emergence effect against AMARE ([11]; 80 g/ha): 90%; Post-emergence effect against AMARE ([11]; 320 g/ha): 90%; Post-emergence effect against VIOTR in % ([12]; 20 g/ha): 80%; Post-emergence effect against VIOTR in % ([12]; 80 g/ha): 90%; Post-emergence effect against MATIN in % ([15]; 80 g/ha): 80%; Post-emergence effect against MATIN in % ([15]; 320 g/ha): 90%; Post-emergence effect against SETVI in % ([14]; 20 g/ha): 90%; Post-emergence effect against SETVI in % ([14]; 80 g/ha): 90%
